Tests used:
[1] = test system: S. cerevisiae YFK007 (wild type); assay: primary screen, zone size on agar; format: cell-based, Saccharomyces cerevisiae; settings: 20 ng FK506, 10 mcg CsA, 10 mcg L733,560, 20 mcg aculeacin, 20 mcg papulacandin, 48 h
Method: (§1) Each strain is grown at 28°-30° C. in YPAD/10 mM CaCl2 medium with shaking at 220 rpm (to mid or late log phase). The cultures are diluted 1:10 with water, and the OD values of the dilutions are measured at 600 nm (against a blank of YPAD/10 mM CaCl2 similarly diluted 1:10 in water). The OD value is multiplied by 10 to estimate the OD of the culture. Portions (100 ml) of YPAD/10 mM CaCl2 medium containing 1.5% agar, equilibrated at 45° C. in a water bath, are seeded with culture such that the final cell density in the agar would have an OD value of 0.015 (i.e., 3×10^6 cfu/ml; a sample calculation is provided below). The seeded agar is poured into 500 cm^2 Nunc plates. Once the agar plates have solidified, 10 mcL aliquots of samples containing test compounds, such as fermentation extracts, are dissolved in water, 100% methanol or ethanol, or up to 50% DMSO and are placed on each member of the two-plate set in 11 by 8 arrays.
(§2) The plates are incubated for 48 h at 28°-30° C. Diameters of the zones are read to the outermost edge and recorded in mm. The clarity of the zone is reported as clear (no designation), hazy (h), or very hazy (vh). Very hazy zones are best seen by viewing the plate under an elevated light placed between the assay dish and a dark wall.

[2] = test system: S. cerevisiae YFK532-7C (fks1-1); assay: primary screen, zone size on agar; format: cell-based, Saccharomyces cerevisiae; settings: 20 ng FK506, 10 mcg CsA, 10 mcg L733,560, 20 mcg aculeacin, 20 mcg papulacandin, 48 h
Method: as §1, §2

[3] = molecular target: 1,3-beta-D glucan synthase from X2180-1A (Saccharomyces cerevisiae, UniProt P38631); assay: 1,3-beta-D glucan synthase assay, membrane preparation; format: biochemical; settings: membranes of X2180-1A
Method: Cell free extracts were prepared from mutant and wild type cells grown to logarithmic phase as previously described (Kang and Cabib, PNAS, 83:5808-5812, 1986). After homogenization with glass beads, the unbroken cells and debris were removed by a low speed centrifugation (1,000×gfor 5 min). The supernatant fluids were centrifuged at 100,000×g for 60 min and the pellets were washed with 2.5 ml (per gram of wet cells) of buffer containing 0.05M potassium phosphate (pH 7.5), 0.5 mM DTT, and 1.0 mM PMSF. The washed pellet was resuspended in the same buffer containing 5% glycerol. This served as the microsomal membranes source containing both chitin and glucan synthase enzymatic activities. The standard 1,3-beta-D glucan synthase reaction was initiated by mixing 35 mcg protein in cocktail I, which included TEK buffer (125 mM Tris chloride, pH 7.5, 31 mM KF, and 1 mM EDTA), 25% PBS, pH 7.0, 3.31 mcM GTP-gamma-S, and 0.25% BSA in a total volume of 69 mcL, with cocktail II, which included 4 units alpha-amylase, 25 mcg UDP-glucose, and 1 microCi UDP-^3 H-glucose, in a total volume of 11 mcL. Following 150 minutes of incubation at 30° C., the incorporation of UDP-^[…] into glucan was measured after precipitation with trichloroacetic acid.
Crude enzyme preparations associated with cell membranes were tested for glucan and chitin synthesis activities. […]

Sequence of 1,3-beta-D glucan synthase from X2180-1A (P38631 whole entry): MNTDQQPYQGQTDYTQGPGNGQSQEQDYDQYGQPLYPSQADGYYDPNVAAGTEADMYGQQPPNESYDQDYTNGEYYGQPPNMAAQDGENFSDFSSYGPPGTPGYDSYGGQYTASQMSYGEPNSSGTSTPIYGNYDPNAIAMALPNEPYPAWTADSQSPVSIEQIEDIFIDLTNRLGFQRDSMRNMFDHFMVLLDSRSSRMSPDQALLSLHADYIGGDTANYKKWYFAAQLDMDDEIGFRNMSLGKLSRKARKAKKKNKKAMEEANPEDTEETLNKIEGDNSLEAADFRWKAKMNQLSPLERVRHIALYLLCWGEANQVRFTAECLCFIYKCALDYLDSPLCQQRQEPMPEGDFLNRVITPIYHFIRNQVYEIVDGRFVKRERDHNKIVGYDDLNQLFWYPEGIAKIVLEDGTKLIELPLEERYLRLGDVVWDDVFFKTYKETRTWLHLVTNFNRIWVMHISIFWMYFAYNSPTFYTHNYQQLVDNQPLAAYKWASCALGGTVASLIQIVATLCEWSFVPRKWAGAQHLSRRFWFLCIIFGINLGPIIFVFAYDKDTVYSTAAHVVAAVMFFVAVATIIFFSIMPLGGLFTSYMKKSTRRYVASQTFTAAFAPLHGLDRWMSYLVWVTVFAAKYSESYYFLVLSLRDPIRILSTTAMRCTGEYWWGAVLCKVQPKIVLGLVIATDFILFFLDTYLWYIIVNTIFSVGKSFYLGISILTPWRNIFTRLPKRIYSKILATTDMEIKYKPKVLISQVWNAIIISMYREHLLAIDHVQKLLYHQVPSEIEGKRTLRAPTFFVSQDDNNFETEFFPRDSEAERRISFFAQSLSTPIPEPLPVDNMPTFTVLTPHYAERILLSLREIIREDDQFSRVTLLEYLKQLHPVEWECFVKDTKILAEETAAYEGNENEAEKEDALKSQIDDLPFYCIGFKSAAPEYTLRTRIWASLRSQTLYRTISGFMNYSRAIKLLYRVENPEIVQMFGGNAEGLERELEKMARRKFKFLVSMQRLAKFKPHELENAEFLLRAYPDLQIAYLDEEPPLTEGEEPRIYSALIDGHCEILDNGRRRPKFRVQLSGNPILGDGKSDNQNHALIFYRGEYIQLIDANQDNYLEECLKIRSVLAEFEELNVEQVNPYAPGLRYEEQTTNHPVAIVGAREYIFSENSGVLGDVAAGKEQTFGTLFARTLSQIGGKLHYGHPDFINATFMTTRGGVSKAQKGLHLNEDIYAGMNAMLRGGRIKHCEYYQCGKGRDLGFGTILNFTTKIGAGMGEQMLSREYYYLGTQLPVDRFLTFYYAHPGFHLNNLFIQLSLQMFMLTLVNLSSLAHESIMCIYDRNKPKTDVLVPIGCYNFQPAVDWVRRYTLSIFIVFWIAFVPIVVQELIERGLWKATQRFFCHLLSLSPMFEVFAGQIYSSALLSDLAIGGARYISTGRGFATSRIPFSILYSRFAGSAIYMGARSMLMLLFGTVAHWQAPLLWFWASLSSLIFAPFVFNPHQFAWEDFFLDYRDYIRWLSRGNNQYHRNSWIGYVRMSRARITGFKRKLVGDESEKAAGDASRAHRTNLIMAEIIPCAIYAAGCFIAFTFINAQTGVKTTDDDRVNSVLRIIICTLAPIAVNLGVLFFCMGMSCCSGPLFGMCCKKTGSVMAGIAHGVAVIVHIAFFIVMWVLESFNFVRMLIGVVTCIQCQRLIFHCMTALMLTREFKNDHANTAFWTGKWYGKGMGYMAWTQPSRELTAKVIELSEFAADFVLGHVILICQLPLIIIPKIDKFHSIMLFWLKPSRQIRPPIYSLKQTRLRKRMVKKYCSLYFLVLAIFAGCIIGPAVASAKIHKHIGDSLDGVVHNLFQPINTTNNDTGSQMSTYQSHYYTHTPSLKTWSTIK
Sequence of 1,3-beta-D glucan synthase from X2180-1A (P06780 1-206, further chain): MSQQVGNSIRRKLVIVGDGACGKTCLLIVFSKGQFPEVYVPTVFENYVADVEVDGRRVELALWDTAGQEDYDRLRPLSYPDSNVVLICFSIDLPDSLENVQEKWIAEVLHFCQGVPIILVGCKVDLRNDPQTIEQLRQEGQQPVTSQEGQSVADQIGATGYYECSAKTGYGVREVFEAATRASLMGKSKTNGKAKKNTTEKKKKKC

dihydropapulacandin [L-687,781]
Primary Screen Zone size (mm) [1]: 20-22 mm | Primary Screen Zone size (mm) [2]: 26-28 mm | IC50 [3]: 5.08 µg/mL

— patent publication US5821353A, “DNA encoding 1,3 beta-D glucan synthase subunits” (Merck & Co., Inc., priority 1996, dated 1998)
